Experimental data from patent publication US20200216441A1, “PESTICIDALLY ACTIVE HETEROCYCLIC DERIVATIVES WITH SULFUR CONTAINING SUBSTITUENTS” (SYNGENTA PARTICIPATIONS AG, priority 2017, published 2020).

Assays:
[1] = test system: Plutella xylostella (Diamond Back Moth); assay: whole plant or invertebrate; assay type: in vivo; settings: 120 h, application rate of 200 ppm, L2 larvae on treated artificial diet, 5 days after infestation, read-out: effect in at least one of the two categories (mortality or growth inhibition)
[2] = test system: Diabrotica Balteata (Corn Root Worm); assay: Diabrotica balteata (Corn Root Worm); settings: in Zea mays, 96 h, read-out: effect in at least one of the two categories (mortality or growth inhibition)
[3] = test system: Spodoptera littoralis (Egyptian Cotton Leaf Worm); assay: whole plant or invertebrate; settings: in Gossypium barbadense, foliar, 72 h, read-out: control (mortality, anti-feeding effect, growth inhibition)
[4] = test system: Myzus persicae (Green Peach Aphid); assay: whole plant or invertebrate; settings: foliar, 144 h
[5] = test system: Myzus persicae (Green Peach Aphid); assay: Myzus persicae (Green Peach Aphid). Intrinsic Activity; settings: 120 h
[6] = test system: Tetranychus urticae (Two-Spotted Spider Mite); settings: foliar, 192 h
[7] = test system: Bemisia tabaci (Cotton White Fly); settings: in Gossypium hirsutum, foliar, 144 h
[8] = test system: Euschistus heros (Neotropical Brown Stink Bug); assay: whole plant or invertebrate; assay type: in vivo; settings: 120 h, application rate of 200 ppm, N2 nymphs on sprayed soybean leaves, 5 days after infestation, read-out: effect in at least one of the two categories (mortality or growth inhibition)
[9] = test system: Myzus persicae (Green Peach Aphid); assay: whole plant or invertebrate; assay type: in vivo; settings: 144 h, test rate of 24 ppm, systemic, roots of infested pea seedlings in test solution, 6 days
[10] = test system: Spodoptera littoralis (Egyptian Cotton Leaf Worm); assay: Spodoptera littoralis (Egyptian Cotton Leaf Worm), uptake by lettuce roots from agar; assay type: in vivo; settings: 144 h, test rate of 12.5 ppm, compound in agar absorbed by lettuce roots, 6 days after infestation, read-out: effect in at least one of the three categories (mortality, anti-feeding, or growth inhibition)
From the text: Example B10: Spodoptera littoralis (Egyptian Cotton Leaf Worm)
Test compounds were applied by pipette from 10′000 ppm DMSO stock solutions into 24-well plates and mixed with agar. Lettuce seeds were placed onto the agar and the multi well plate was closed by another plate which contained also agar. After 7 days the compound was absorbed by the roots and the lettuce grew into the lid plate. The lettuce leaves were then cut off into the lid plate. Spodoptera eggs were pipetted through a plastic stencil onto a humid gel blotting paper and the lid plate was closed with it.

[11] = test system: Frankliniella occidentalis (Western Flower Thrips); settings: foliar, 168 h

CCSc1cc(OC(C)(C)C#N)cnc1-c1nc2cc(C(F)(F)F)ncc2n1C [Compound P19, 2-[[5-ethylsulfanyl-6-[3-methyl-6-(trifluoromethyl)imidazo[4,5-c]pyridin-2-yl]-3-pyridyl]oxy]-2-methyl-propanenitrile]
≥ 80%: percent effect (mortality or growth inhibition) at 200 ppm [1] | mortality at 200 ppm [2] | mortality at 200 ppm [3] | mortality at 200 ppm [4] | mortality at 12 ppm [5] | mortality at 200 ppm [6] | mortality at 200 ppm [7] | percent effect (mortality or growth inhibition) at 200 ppm [8]

CCS(=O)(=O)c1cc(OC(C)(C)C#N)cnc1-c1nc2cc(C(F)(F)F)ncc2n1C [Compound P18, 2-[[5-ethylsulfonyl-6-[3-methyl-6-(trifluoromethyl)imidazo[4,5-c]pyridin-2-yl]-3-pyridyl]oxy]-2-methyl-propanenitrile]
≥ 80%: mortality at 24 ppm [9] | percent effect (mortality or growth inhibition) at 200 ppm [1] | mortality at 200 ppm [2] | mortality at 200 ppm [3] | mortality at 200 ppm [4] | mortality at 200 ppm [6] | mortality at 200 ppm [7] | percent effect (mortality or growth inhibition) at 200 ppm [8] | percent effect (mortality, anti-feeding or growth inhibition) at 12.5 ppm [10] | mortality at 200 ppm [11]
